Laboratory results from the supplement of paper PMC13386468.

Experiments:
Assay in all cases: IC50 for competition of protein binding to Kinobeads
Settings in all cases: assay detail: Kinobeads competition in P. falciparum blood-stage lysate
UniProt C0H5J2 = target: UniProt C0H5J2
UniProt C6KSY0 = target: UniProt C6KSY0
UniProt O77361 = target: UniProt O77361
UniProt O77385 = target: UniProt O77385
UniProt O96260 = target: UniProt O96260
UniProt O97248 = target: UniProt O97248
UniProt P61076 = target: UniProt P61076
Chain of UniProt P61076 (P61076 whole entry): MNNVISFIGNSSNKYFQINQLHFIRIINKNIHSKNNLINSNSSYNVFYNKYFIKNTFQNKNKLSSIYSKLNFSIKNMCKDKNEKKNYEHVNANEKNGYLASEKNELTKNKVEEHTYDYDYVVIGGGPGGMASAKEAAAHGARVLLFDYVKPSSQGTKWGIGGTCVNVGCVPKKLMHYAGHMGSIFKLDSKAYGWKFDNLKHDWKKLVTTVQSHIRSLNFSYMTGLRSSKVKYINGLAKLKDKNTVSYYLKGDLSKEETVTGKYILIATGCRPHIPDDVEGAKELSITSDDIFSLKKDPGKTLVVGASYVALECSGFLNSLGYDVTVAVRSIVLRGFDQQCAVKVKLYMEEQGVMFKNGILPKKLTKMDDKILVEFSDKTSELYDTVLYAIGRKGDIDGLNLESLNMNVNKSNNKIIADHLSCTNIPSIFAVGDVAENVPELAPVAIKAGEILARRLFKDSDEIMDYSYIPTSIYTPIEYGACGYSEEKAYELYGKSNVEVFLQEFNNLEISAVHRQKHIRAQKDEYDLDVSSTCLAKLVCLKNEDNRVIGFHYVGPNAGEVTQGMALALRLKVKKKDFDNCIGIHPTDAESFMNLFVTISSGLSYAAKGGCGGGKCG

UniProt Q7K6A9 = target: UniProt Q7K6A9
UniProt Q7KQK3 = target: UniProt Q7KQK3
UniProt Q8I0V3 = target: UniProt Q8I0V3
UniProt Q8I1Q5 = target: UniProt Q8I1Q5
UniProt Q8I1R5 = target: UniProt Q8I1R5
UniProt Q8I1R6 = target: UniProt Q8I1R6
UniProt Q8I1V2 = target: UniProt Q8I1V2
UniProt Q8I202 = target: UniProt Q8I202
UniProt Q8I2B1 = target: UniProt Q8I2B1
UniProt Q8I2W3 = target: UniProt Q8I2W3
UniProt Q8I2X4 = target: UniProt Q8I2X4
UniProt Q8I305 = target: UniProt Q8I305
UniProt Q8I374 = target: UniProt Q8I374
UniProt Q8I3Q6 = target: UniProt Q8I3Q6
UniProt Q8I479 = target: UniProt Q8I479
UniProt Q8I4U5 = target: UniProt Q8I4U5
UniProt Q8I4W4 = target: UniProt Q8I4W4
UniProt Q8I4Z2 = target: UniProt Q8I4Z2
UniProt Q8I5F4 = target: UniProt Q8I5F4
UniProt Q8I5H4 = target: UniProt Q8I5H4
UniProt Q8I5Q6 = target: UniProt Q8I5Q6
UniProt Q8IAW5 = target: UniProt Q8IAW5
UniProt Q8IBI0 = target: UniProt Q8IBI0
UniProt Q8IBY4 = target: UniProt Q8IBY4
UniProt Q8IDN9 = target: UniProt Q8IDN9
UniProt Q8IDW4 = target: UniProt Q8IDW4
UniProt Q8IE41 = target: UniProt Q8IE41
UniProt Q8IIC9 = target: UniProt Q8IIC9
UniProt Q8IIF4 = target: UniProt Q8IIF4
UniProt Q8IIH7 = target: UniProt Q8IIH7
UniProt Q8IIS9 = target: UniProt Q8IIS9
UniProt Q8IIW5 = target: UniProt Q8IIW5
UniProt Q8IJ74 = target: UniProt Q8IJ74
UniProt Q8IJ99 = target: UniProt Q8IJ99
UniProt Q8IJI4 = target: UniProt Q8IJI4
UniProt Q8IJJ0 = target: UniProt Q8IJJ0
UniProt Q8IJN9 = target: UniProt Q8IJN9
UniProt Q8IJV7 = target: UniProt Q8IJV7
UniProt Q8IKM5 = target: UniProt Q8IKM5
UniProt Q8IKR1 = target: UniProt Q8IKR1
UniProt Q8ILN8 = target: UniProt Q8ILN8
UniProt Q8IM26 = target: UniProt Q8IM26
UniProt Q8IM32 = target: UniProt Q8IM32
UniProt Q8IM71 = target: UniProt Q8IM71
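Also: native unpurified kinases from lysate captured on beads bearing immobilized kinase inhibitors, with bead-bound kinases quantified by mass spectrometry across compound doses.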

Compound `O=c1[nH]c2ccc(Cl)cc2c(NC2CN3CCC2CC3)c1-c1nc2ccccc2[nH]1` (stereo unspecified) [CHIR-124] has an IC50 (UniProt C0H5J2) of over 20 µM, an IC50 (UniProt C6KSY0) of over 20 µM and an IC50 (UniProt O77361) of over 20 µM. The IC50 (UniProt O77385) was over 20 µM, the IC50 (UniProt O96260) was over 20 µM and the IC50 (UniProt O97248) was over 20 µM. It also gave an IC50 (UniProt P61076) of over 20 µM, an IC50 (UniProt Q7K6A9) of over 20 µM and an IC50 (UniProt Q7KQK3) of over 20 µM. It also gave an IC50 (UniProt Q8I0V3) of over 20 µM, an IC50 (UniProt Q8I1Q5) of over 20 µM and an IC50 (UniProt Q8I1R5) of over 20 µM. It also gave an IC50 (UniProt Q8I1R6) of over 20 µM, an IC50 (UniProt Q8I1V2) of over 20 µM and an IC50 (UniProt Q8I202) of over 20 µM. It also gave an IC50 (UniProt Q8I2B1) of over 20 µM, an IC50 (UniProt Q8I2W3) of over 20 µM and an IC50 (UniProt Q8I2X4) of over 20 µM. It also gave an IC50 (UniProt Q8I305) of over 20 µM, an IC50 (UniProt Q8I374) of over 20 µM and an IC50 (UniProt Q8I3Q6) of over 20 µM. For the same compound, the IC50 (UniProt Q8I479) was over 20 µM, the IC50 (UniProt Q8I4U5) was over 20 µM and the IC50 (UniProt Q8I4W4) was over 20 µM. It also gave an IC50 (UniProt Q8I4Z2) of over 20 µM, an IC50 (UniProt Q8I5F4) of over 20 µM and an IC50 (UniProt Q8I5H4) of over 20 µM. For the same compound, the IC50 (UniProt Q8I5Q6) was over 20 µM, the IC50 (UniProt Q8IAW5) was over 20 µM and the IC50 (UniProt Q8IBI0) was over 20 µM. It also gave an IC50 (UniProt Q8IBY4) of over 20 µM, an IC50 (UniProt Q8IDN9) of over 20 µM and an IC50 (UniProt Q8IDW4) of over 20 µM. It also gave an IC50 (UniProt Q8IE41) of 0.375 µM, an IC50 (UniProt Q8IIC9) of over 20 µM and an IC50 (UniProt Q8IIF4) of over 20 µM. For the same compound, the IC50 (UniProt Q8IIH7) was over 20 µM, the IC50 (UniProt Q8IIS9) was over 20 µM and the IC50 (UniProt Q8IIW5) was over 20 µM. It also gave an IC50 (UniProt Q8IJ74) of over 20 µM, an IC50 (UniProt Q8IJ99) of over 20 µM and an IC50 (UniProt Q8IJI4) of over 20 µM. It also gave an IC50 (UniProt Q8IJJ0) of over 20 µM, an IC50 (UniProt Q8IJN9) of over 20 µM and an IC50 (UniProt Q8IJV7) of over 20 µM. For the same compound, the IC50 (UniProt Q8IKM5) was over 20 µM, the IC50 (UniProt Q8IKR1) was over 20 µM and the IC50 (UniProt Q8ILN8) was over 20 µM. For the same compound, the IC50 (UniProt Q8IM26) was over 20 µM, the IC50 (UniProt Q8IM32) was over 20 µM and the IC50 (UniProt Q8IM71) was over 20 µM.
